Experimental data: paper PMC2962915, “The –SH Protection Method for Determining Accurate Kd Values for Enzyme-Coenzyme Complexes of NAD^+-Dependent Glutamate Dehydrogenase and Engineered Mutants: Evidence for Nonproductive NADPH Complexes” (Enzyme Research, 2010)
Where two headings read alike, the source gives them in different places. Each block holds one molecule with its values, some of them ahead of it.

Target: T1, clostridial glutamate dehydrogenase (GDH) ([Clostridium] symbiosum, UniProt P24295)
T1 construct: no tag mentioned
T1 sequence (P24295 2-450): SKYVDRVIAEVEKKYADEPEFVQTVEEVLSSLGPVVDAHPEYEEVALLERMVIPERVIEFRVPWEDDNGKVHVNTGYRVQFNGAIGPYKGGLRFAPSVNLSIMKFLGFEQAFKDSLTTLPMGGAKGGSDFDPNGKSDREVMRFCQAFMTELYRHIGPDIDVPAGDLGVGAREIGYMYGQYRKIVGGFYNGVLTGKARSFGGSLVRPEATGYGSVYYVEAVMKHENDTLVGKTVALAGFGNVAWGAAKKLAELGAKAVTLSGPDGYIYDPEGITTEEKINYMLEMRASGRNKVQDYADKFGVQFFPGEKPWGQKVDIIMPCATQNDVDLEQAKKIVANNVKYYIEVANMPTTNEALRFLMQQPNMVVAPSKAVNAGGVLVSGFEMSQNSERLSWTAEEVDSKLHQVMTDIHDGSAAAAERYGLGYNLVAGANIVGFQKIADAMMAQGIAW
Experiment: protection against DTNB inactivation
Format: biochemical
Details: 0.1 M potassium phosphate, pH 7.0, 25°C, 200 μM DTNB, competitive with DTNB at coenzyme site, Kd corrected for DTNB
From the text: protection against DTNB inactivation on clostridial glutamate dehydrogenase (GDH)

Kd (read-out: K dNADPH): 23 ± 1 µM
SMILES: NC(=O)C1=CN([C@@H]2O[C@H](COP(=O)(O)OP(=O)(O)OC[C@H]3O[C@@H](n4cnc5c(N)ncnc54)[C@H](OP(=O)(O)O)[C@@H]3O)[C@@H](O)[C@H]2O)C=CC1 [NADPH]

Kd (read-out: K dNAD+): 335 ± 17 µM
SMILES: NC(=O)c1ccc[n+]([C@@H]2O[C@H](COP(=O)(O)OP(=O)(O)OC[C@H]3O[C@@H](n4cnc5c(N)ncnc54)[C@H](O)[C@@H]3O)[C@@H](O)[C@H]2O)c1 [NAD^+]

Kd (read-out: K dNADH): 24 ± 1 µM
SMILES: NC(=O)C1=CN([C@@H]2O[C@H](COP(=O)(O)OP(=O)(O)OC[C@H]3O[C@@H](n4cnc5c(N)ncnc54)[C@H](O)[C@@H]3O)[C@@H](O)[C@H]2O)C=CC1 [NADH]
